# In patent US20250353891A1 (MEDIMMUNE LIMITED, priority 2022, published 2025):
# pEC50: −log10 of the molar value. Starred links: 1 amine or outer side, 2 acyl side, 3 side chain; linkers in the order of their positions; H or OH if unused. Non-standard residues stand in square brackets, D forms with d. Residues, ends and D or L forms follow the SMILES beside them. Groups on a side chain read outwards from the residue. *: point of attachment. C18 diacid = O=C(O)CCCCCCCCCCCCCCCCC(=O)*; γGlu = O=C(O)[C@H](CCC(=O)[*:2])N[*:1]; αMeF = C[C@](N)(Cc1ccccc1)C(=O)O; AEEA = NCCOCCOCC(=O)O; Aib = CC(C)(N)C(=O)O
# Experiments:
# [1] = target: human glucagon receptor (hGCGR) (Homo sapiens, UniProt P47871); test: cAMP production (HTRF) in CHO cells expressing hGCGR; type: cell-based; parameters: expressed in transfected cells; conditions: Table 6, peptides modified at position 17; cAMP in CHO hGCGR cells; geometric mean; read-out: hGluc-R EC50
# Chain of human glucagon receptor (hGCGR) (P47871 26-477): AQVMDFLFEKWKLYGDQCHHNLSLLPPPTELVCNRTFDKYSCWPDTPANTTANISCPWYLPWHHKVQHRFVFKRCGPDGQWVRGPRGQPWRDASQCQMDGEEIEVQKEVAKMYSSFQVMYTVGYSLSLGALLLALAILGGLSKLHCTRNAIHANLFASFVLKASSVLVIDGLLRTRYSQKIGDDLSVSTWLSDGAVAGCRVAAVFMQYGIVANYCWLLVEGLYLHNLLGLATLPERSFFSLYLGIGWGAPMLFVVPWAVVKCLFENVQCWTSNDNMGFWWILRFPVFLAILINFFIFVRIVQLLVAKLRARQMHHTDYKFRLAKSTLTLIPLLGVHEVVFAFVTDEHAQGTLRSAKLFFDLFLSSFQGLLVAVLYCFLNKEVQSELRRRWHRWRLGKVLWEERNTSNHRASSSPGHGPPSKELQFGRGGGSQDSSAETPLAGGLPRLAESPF
# Method in brief: (§1)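 Potency values represent EC50 from 4-parameter logistic curves of HTRF % Delta F signal. Receptor-expressing CHO cells (hGCGR 2×10^5 cells/mL, hGLP-1R 1×10^5 cells/mL) were exposed for 30 min at room temperature before two-step cAMP detection.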
# [2] = target: human GLP-1 receptor (hGLP-1R) (Homo sapiens, UniProt P43220); test: cAMP production (HTRF) in CHO cells expressing hGLP-1R; type: cell-based; parameters: expressed in transfected cells; conditions: for pEC50: Table 6, peptides modified at position 17, cAMP in CHO hGLP-1R cells, geometric mean, read-out: hGLP-1R EC50; for % Relative Potency Ratio: Table 6, % GLP-1R activity relative to GLP-1 / % GlucR activity relative to glucagon
# Chain of human GLP-1 receptor (hGLP-1R) (P43220 24-463): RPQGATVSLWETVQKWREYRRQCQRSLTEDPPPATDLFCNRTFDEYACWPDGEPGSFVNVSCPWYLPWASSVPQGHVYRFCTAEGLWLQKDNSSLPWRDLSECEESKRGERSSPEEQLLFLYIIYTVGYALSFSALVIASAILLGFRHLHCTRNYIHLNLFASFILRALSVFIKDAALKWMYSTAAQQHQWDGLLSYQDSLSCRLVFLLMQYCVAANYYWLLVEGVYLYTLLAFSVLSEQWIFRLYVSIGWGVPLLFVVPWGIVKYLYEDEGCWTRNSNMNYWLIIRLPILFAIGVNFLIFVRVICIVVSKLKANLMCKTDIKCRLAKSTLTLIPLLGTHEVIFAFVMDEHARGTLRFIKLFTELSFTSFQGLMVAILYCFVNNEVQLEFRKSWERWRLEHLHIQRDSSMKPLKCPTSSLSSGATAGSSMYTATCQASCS
# Method in brief: as §1
pEC50 [1],pEC50 [2],% Relative Potency Ratio [2],Compound
9.69,9.96,3.7,CC(C)C[C@H](NC(=O)[C@H](Cc1c[nH]c2ccccc12)NC(=O)[C@H](CCC(N)=O)NC(=O)[C@@H](NC(=O)[C@H](Cc1ccccc1)NC(=O)[C@H](CC(=O)O)NC(=O)[C@H](CCCNC(=N)N)NC(=O)[C@H](C)NC(=O)[C@H](CCCNC(=N)N)NC(=O)[C@H](CCCCNC(=O)COCCOCCNC(=O)COCCOCCNC(=O)CC[C@H](NC(=O)CCCCCCCCCCCCCCCCCCC(=O)O)C(=O)O)NC(=O)[C@@H](NC(=O)[C@H](CC(=O)O)NC(=O)[C@H](CC(C)C)NC(=O)[C@](C)(Cc1ccccc1)NC(=O)[C@H](CCCCN)NC(=O)[C@H](CO)NC(=O)[C@@H](NC(=O)[C@H](CC(=O)O)NC(=O)[C@H](CO)NC(=O)[C@@H](NC(=O)[C@H](Cc1ccccc1)NC(=O)[C@@H](NC(=O)CNC(=O)[C@H](CCC(N)=O)NC(=O)C(C)(C)NC(=O)[C@@H](N)Cc1c[nH]cn1)[C@@H](C)O)[C@@H](C)O)C(C)C)[C@@H](C)O)C(C)C)C(=O)N[C@@H](CC(C)C)C(=O)N[C@@H](CCC(=O)O)C(=O)NC(C)(C)C(=O)NCC(N)=O [Peptide 457]
9.42,9.94,6.7,CC(C)C[C@H](NC(=O)[C@H](Cc1c[nH]c2ccccc12)NC(=O)[C@H](CCC(N)=O)NC(=O)[C@@H](NC(=O)[C@H](Cc1ccccc1)NC(=O)[C@H](CC(=O)O)NC(=O)[C@H](CCCNC(=N)N)NC(=O)[C@H](C)NC(=O)[C@H](CCCNC(=N)N)NC(=O)[C@H](CCCCNC(=O)COCCOCCNC(=O)COCCOCCNC(=O)CC[C@H](NC(=O)CC[C@H](NC(=O)CCCCCCCCCCCCCCCCCCC(=O)O)C(=O)O)C(=O)O)NC(=O)[C@@H](NC(=O)[C@H](CC(=O)O)NC(=O)[C@H](CC(C)C)NC(=O)[C@](C)(Cc1ccccc1)NC(=O)[C@H](CCCCN)NC(=O)[C@H](CO)NC(=O)[C@@H](NC(=O)[C@H](CC(=O)O)NC(=O)[C@H](CO)NC(=O)[C@@H](NC(=O)[C@H](Cc1ccccc1)NC(=O)[C@@H](NC(=O)CNC(=O)[C@H](CCC(N)=O)NC(=O)C(C)(C)NC(=O)[C@@H](N)Cc1c[nH]cn1)[C@@H](C)O)[C@@H](C)O)C(C)C)[C@@H](C)O)C(C)C)C(=O)N[C@@H](CC(C)C)C(=O)N[C@@H](CCC(=O)O)C(=O)NC(C)(C)C(=O)NCC(N)=O [Peptide 458]
10.43,10.49,2.2,CC(C)C[C@H](NC(=O)[C@H](CC(C)C)NC(=O)[C@H](Cc1c[nH]c2ccccc12)NC(=O)[C@H](CCCNC(=N)N)NC(=O)[C@@H](NC(=O)[C@H](Cc1ccccc1)NC(=O)[C@H](CC(=O)O)NC(=O)[C@H](CCC(N)=O)NC(=O)[C@H](C)NC(=O)[C@H](CCCNC(=N)N)NC(=O)[C@H](CCCCNC(=O)COCCOCCNC(=O)COCCOCCNC(=O)CC[C@H](NC(=O)CCCCCCCCCCCCCCCCC(=O)O)C(=O)O)NC(=O)[C@H](CCCCN)NC(=O)[C@H](CC(=O)O)NC(=O)[C@H](CC(C)C)NC(=O)[C@](C)(Cc1ccccc1)NC(=O)[C@H](CCCCN)NC(=O)[C@H](CO)NC(=O)[C@@H](NC(=O)[C@H](CC(=O)O)NC(=O)[C@H](CO)NC(=O)[C@@H](NC(=O)[C@H](Cc1ccccc1)NC(=O)[C@@H](NC(=O)CNC(=O)[C@H](CCC(N)=O)NC(=O)C(C)(C)NC(=O)[C@@H](N)Cc1c[nH]cn1)[C@@H](C)O)[C@@H](C)O)C(C)C)C(C)C)C(=O)N[C@@H](C)C(=O)N[C@@H](CCC(=O)O)C(N)=O [Peptide 459] (H-H[Aib]QGTFTSDVSK[αMeF]LDKK([AEEA-AEEA-γGlu-C18 diacid])RAQDFVRWLLAE-NH2)
10.18,9.93,1.1,CC(C)C[C@H](NC(=O)[C@H](CC(C)C)NC(=O)[C@H](Cc1c[nH]c2ccccc12)NC(=O)[C@H](CCCNC(=N)N)NC(=O)[C@@H](NC(=O)[C@H](Cc1ccccc1)NC(=O)[C@H](CC(=O)O)NC(=O)[C@H](CCC(N)=O)NC(=O)[C@H](C)NC(=O)[C@H](CCCNC(=N)N)NC(=O)[C@H](CCCCNC(=O)COCCOCCNC(=O)COCCOCCNC(=O)CC[C@H](NC(=O)CCCCCCCCCCCCCCCCCCC(=O)O)C(=O)O)NC(=O)[C@H](CCCCN)NC(=O)[C@H](CC(=O)O)NC(=O)[C@H](CC(C)C)NC(=O)[C@](C)(Cc1ccccc1)NC(=O)[C@H](CCCCN)NC(=O)[C@H](CO)NC(=O)[C@@H](NC(=O)[C@H](CC(=O)O)NC(=O)[C@H](CO)NC(=O)[C@@H](NC(=O)[C@H](Cc1ccccc1)NC(=O)[C@@H](NC(=O)CNC(=O)[C@H](CCC(N)=O)NC(=O)C(C)(C)NC(=O)[C@@H](N)Cc1c[nH]cn1)[C@@H](C)O)[C@@H](C)O)C(C)C)C(C)C)C(=O)N[C@@H](C)C(=O)N[C@@H](CCC(=O)O)C(N)=O [Peptide 460]
10.05,10.40,4.5,CC(C)C[C@H](NC(=O)[C@H](CC(C)C)NC(=O)[C@H](Cc1c[nH]c2ccccc12)NC(=O)[C@H](CCC(N)=O)NC(=O)[C@@H](NC(=O)[C@H](Cc1ccccc1)NC(=O)[C@H](CC(=O)O)NC(=O)[C@H](CCCNC(=N)N)NC(=O)[C@H](C)NC(=O)[C@H](CCCNC(=N)N)NC(=O)[C@H](CCCCNC(=O)COCCOCCNC(=O)COCCOCCNC(=O)CC[C@H](NC(=O)CCCCCCCCCCCCCCCCC(=O)O)C(=O)O)NC(=O)[C@@H](NC(=O)[C@H](CC(=O)O)NC(=O)[C@H](CC(C)C)NC(=O)[C@](C)(Cc1ccccc1)NC(=O)[C@H](CCCCN)NC(=O)[C@H](CO)NC(=O)[C@@H](NC(=O)[C@H](CC(=O)O)NC(=O)[C@H](CO)NC(=O)[C@@H](NC(=O)[C@H](Cc1ccccc1)NC(=O)[C@@H](NC(=O)CNC(=O)[C@H](CCC(N)=O)NC(=O)C(C)(C)NC(=O)[C@@H](N)Cc1c[nH]cn1)[C@@H](C)O)[C@@H](C)O)C(C)C)[C@@H](C)O)C(C)C)C(=O)N[C@@H](CCC(=O)O)C(=O)N[C@@H](C)C(=O)NCC(=O)O [Peptide 462] (H-H[Aib]QGTFTSDVSK[αMeF]LDTK([AEEA-AEEA-γGlu-C18 diacid])RARDFVQWLLEAG-OH; N-terminus assumed)
9.36,9.31,1.8,CC(C)C[C@H](NC(=O)[C@H](CC(=O)O)NC(=O)[C@H](CC(C)C)NC(=O)[C@](C)(Cc1ccccc1)NC(=O)[C@H](CCCCN)NC(=O)[C@H](CO)NC(=O)[C@@H](NC(=O)[C@H](CC(=O)O)NC(=O)[C@H](CO)NC(=O)[C@@H](NC(=O)[C@H](Cc1ccccc1)NC(=O)[C@@H](NC(=O)CNC(=O)[C@H](CCC(N)=O)NC(=O)C(C)(C)NC(=O)[C@@H](N)Cc1c[nH]cn1)[C@@H](C)O)[C@@H](C)O)C(C)C)C(=O)N[C@@H](CCCCNC(=O)COCCOCCNC(=O)COCCOCCNC(=O)CC[C@H](NC(=O)CC[C@H](NC(=O)CCCCCCCCCCCCCCCCC(=O)O)C(=O)O)C(=O)O)C(=O)N[C@@H](CCCNC(=N)N)C(=O)N[C@@H](C)C(=O)N[C@@H](CCC(N)=O)C(=O)N[C@@H](CC(=O)O)C(=O)N[C@@H](Cc1ccccc1)C(=O)N[C@H](C(=O)N[C@@H](CCC(N)=O)C(=O)N[C@@H](Cc1c[nH]c2ccccc12)C(=O)N[C@@H](CC(C)C)C(=O)N[C@@H](CC(C)C)C(=O)NC(C)(C)C(=O)N[C@H](C(=O)O)[C@@H](C)O)C(C)C [Peptide 465] (H-H[Aib]QGTFTSDVSK[αMeF]LDLK([AEEA-AEEA-γGlu-γGlu-C18 diacid])RAQDFVQWLL[Aib]T-OH; N-terminus assumed)
